Measurements taken from patent US6756359B2, “C12 modified erythromycin macrolides and ketolides having antibacterial activity” (Chiron Corporation, priority 2001, dated 2004).
≈ marks a conversion by molar mass, not a printed value.

Key:
Test in all cases: Antibacterial activity in vitro, MIC by broth microdilution
[1] = system: S. pneumoniae Stpn_Erm S 4297; format: cell-based, Streptococcus pneumoniae; settings: Table 3, Strain ID I: S. pneumoniae Stpn_Erm S 4297; unit assumed
Outline: (§1)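 MIC = lowest drug concentration with no visible growth. Read after 18-24 h at 35° C. in 2-fold dilution series; inoculum 3×10^5–7×10^5 CFU/mL in CAMHB, supplemented with 2-5% lysed horse blood and incubated in 5-10% CO2 for pneumococci.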

[2] = system: S. pneumoniae Stpn_Mef S 3427; format: cell-based, Streptococcus pneumoniae; settings: Table 3, Strain ID K: S. pneumoniae Stpn_Mef S 3427
Outline: as §1

[3] = system: S. pneumoniae Stpn_49619; format: cell-based, Streptococcus pneumoniae; settings: Table 3, Strain ID E: S. pneumoniae Stpn_49619
Outline: as §1

[4] = system: S. pneumoniae Stpn_Mef 5654; format: cell-based, Streptococcus pneumoniae; settings: Table 3, Strain ID J: S. pneumoniae Stpn_Mef 5654; unit assumed
Outline: as §1

[5] = system: S. pneumoniae Stpn_Erm 6849; format: cell-based, Streptococcus pneumoniae; settings: Table 3, Strain ID H: S. pneumoniae Stpn_Erm 6849; unit assumed
Outline: as §1

[6] = system: S. pneumoniae Stpn_280-962 Pen S; format: cell-based, Streptococcus pneumoniae; settings: Table 3, Strain ID G: S. pneumoniae Stpn_280-962 Pen S
Outline: as §1

[7] = system: S. pneumoniae Stpn_297-749 Pen R; format: cell-based, Streptococcus pneumoniae; settings: Table 3, Strain ID F: S. pneumoniae Stpn_297-749 Pen R
Outline: as §1

[8] = system: H. influenzae Hain_49247; format: cell-based, Haemophilus influenzae; settings: Table 3, Strain ID L: H. influenzae Hain_49247; unit assumed
Outline: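 Visible-growth inhibition defined the MIC, obtained by NCCLS broth microdilution at 35° C. over 18-24 hours with a final inoculum of 3×10^5–7×10^5 CFU/mL.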

[9] = system: S. pyogenes Stpy_8668; format: cell-based; settings: Table 3, Strain ID D: S. pyogenes Stpy_8668
Outline: as §1

[10] = system: E. faecalis Enfa_29212; format: cell-based; settings: Table 3, Strain ID C: E. faecalis Enfa_29212; unit assumed
Outline: as §1

[11] = system: S. epidermidis Step_14990; format: cell-based; settings: Table 3, Strain ID A: S. epidermidis Step_14990; unit assumed
Outline: as §1

[12] = system: S. epidermidis Step_f50654 Pen S; format: cell-based; settings: Table 3, Strain ID B: S. epidermidis Step_f50654 Pen S; unit assumed
Outline: as §1

[13] = system: E. coli Esco_25922; format: cell-based; settings: Table 3, Strain ID M: E. coli Esco_25922; unit assumed
Outline: as §1

| Structure (SMILES) | MIC [1] [µg/mL] | MIC ([2]; unit assumed) [µg/mL] | MIC [3] | MIC [4] [µg/mL] | MIC [5] [µg/mL] | MIC [6] | MIC [7] | MIC [8] [µg/mL] | MIC [9] | MIC [10] [µg/mL] | MIC [11] [µg/mL] | MIC [12] [µg/mL] | MIC [13] [µg/mL] | MIC [2] |
| --- | --- | --- | --- | --- | --- | --- | --- | --- | --- | --- | --- | --- | --- | --- |
| CC[C@H]1OC(=O)[C@H](C)C(=O)[C@H](C)[C@@H](O[C@@H]2O[C@H](C)C[C@H](N(C)C)[C@H]2O)[C@@](C)(OC)C[C@@H](C)C(=O)[C@H](C)[C@H]2N(CCCCn3cnc4ccccc43)C(=O)O[C@]12CC [Compound 7282] | 0.2 (≈ 0.25 µM) | 0.1 (≈ 0.125 µM) | ≦0.05 | 0.4 (≈ 0.501 µM) | 0.78 (≈ 0.976 µM) | ≦0.05 | ≦0.05 | 3.13 (≈ 3.92 µM) | ≦0.05 | 0.1 (≈ 0.125 µM) | 0.4 (≈ 0.501 µM) | 0.2 (≈ 0.25 µM) | 12.5 (≈ 15.6 µM) |  |
| CC[C@H]1OC(=O)[C@H](C)C(=O)[C@H](C)[C@@H](O[C@@H]2O[C@H](C)C[C@H](N(C)C)[C@H]2O)[C@@](C)(OC)C[C@@H](C)C(=O)[C@H](C)[C@H]2N(CCCCc3ccnc4ccccc34)C(=O)O[C@]12CC [Compound 7283] | 0.1 (≈ 0.123 µM) |  | ≦0.05 | 0.4 (≈ 0.494 µM) | 0.4 (≈ 0.494 µM) | ≦0.05 | ≦0.05 | 3.13 (≈ 3.86 µM) | ≦0.05 | 0.1 (≈ 0.123 µM) | 0.2 (≈ 0.247 µM) | 0.2 (≈ 0.247 µM) | 12.5 (≈ 15.4 µM) | ≦0.05 |
